Laboratory results as given in ChEMBL document CHEMBL4507268 (2021).

What was measured:
[1] = target: Mitogen-activated protein kinase 7 (Homo sapiens) (UniProt Q13164); conditions: Compound concentration 1000.0 nM
[2] = target: Tyrosine-protein kinase SYK (Homo sapiens) (UniProt P43405); conditions: Compound concentration 1000.0 nM
[3] = target: Ribosomal protein S6 kinase alpha-4 (Homo sapiens) (UniProt O75676); conditions: Compound concentration 1000.0 nM
[4] = target: T1, Dual specificity mitogen-activated protein kinase kinase 3 (Homo sapiens) (UniProt P46734); conditions: Compound concentration 1000.0 nM
T1 sequence (whole entry): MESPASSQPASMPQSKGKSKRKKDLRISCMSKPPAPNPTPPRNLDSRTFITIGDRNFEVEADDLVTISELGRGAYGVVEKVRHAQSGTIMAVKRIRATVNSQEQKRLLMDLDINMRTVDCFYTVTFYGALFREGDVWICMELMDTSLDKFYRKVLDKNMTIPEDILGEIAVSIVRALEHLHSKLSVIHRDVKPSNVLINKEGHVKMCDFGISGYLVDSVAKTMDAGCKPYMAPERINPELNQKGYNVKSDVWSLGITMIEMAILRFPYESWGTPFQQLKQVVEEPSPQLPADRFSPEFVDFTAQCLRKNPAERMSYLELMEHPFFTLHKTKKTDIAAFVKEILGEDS

[5] = target: T2, MAP kinase-activated protein kinase 5 (Homo sapiens) (UniProt Q8IW41); conditions: Compound concentration 1000.0 nM
T2 sequence (whole entry): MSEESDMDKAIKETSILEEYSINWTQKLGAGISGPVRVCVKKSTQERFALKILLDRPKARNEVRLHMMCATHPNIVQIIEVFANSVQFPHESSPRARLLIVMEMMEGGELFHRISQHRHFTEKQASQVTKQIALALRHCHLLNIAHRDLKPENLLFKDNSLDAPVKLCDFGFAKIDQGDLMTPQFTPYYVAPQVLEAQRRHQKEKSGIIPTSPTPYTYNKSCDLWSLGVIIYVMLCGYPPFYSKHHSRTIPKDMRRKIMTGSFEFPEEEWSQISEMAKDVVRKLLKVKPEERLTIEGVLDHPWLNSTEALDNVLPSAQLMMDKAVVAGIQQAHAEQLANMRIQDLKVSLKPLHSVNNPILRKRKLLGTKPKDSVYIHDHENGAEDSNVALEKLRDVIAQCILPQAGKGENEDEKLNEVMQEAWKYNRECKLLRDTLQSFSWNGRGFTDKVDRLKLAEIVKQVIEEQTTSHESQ

[6] = target: 1-phosphatidylinositol 3-phosphate 5-kinase (Homo sapiens) (UniProt Q9Y2I7); conditions: Compound concentration 1000.0 nM
[7] = target: Vascular endothelial growth factor receptor 3 (Homo sapiens) (UniProt P35916); conditions: Compound concentration 1000.0 nM
Sequence of Vascular endothelial growth factor receptor 3 (Homo sapiens) (P35916 whole entry): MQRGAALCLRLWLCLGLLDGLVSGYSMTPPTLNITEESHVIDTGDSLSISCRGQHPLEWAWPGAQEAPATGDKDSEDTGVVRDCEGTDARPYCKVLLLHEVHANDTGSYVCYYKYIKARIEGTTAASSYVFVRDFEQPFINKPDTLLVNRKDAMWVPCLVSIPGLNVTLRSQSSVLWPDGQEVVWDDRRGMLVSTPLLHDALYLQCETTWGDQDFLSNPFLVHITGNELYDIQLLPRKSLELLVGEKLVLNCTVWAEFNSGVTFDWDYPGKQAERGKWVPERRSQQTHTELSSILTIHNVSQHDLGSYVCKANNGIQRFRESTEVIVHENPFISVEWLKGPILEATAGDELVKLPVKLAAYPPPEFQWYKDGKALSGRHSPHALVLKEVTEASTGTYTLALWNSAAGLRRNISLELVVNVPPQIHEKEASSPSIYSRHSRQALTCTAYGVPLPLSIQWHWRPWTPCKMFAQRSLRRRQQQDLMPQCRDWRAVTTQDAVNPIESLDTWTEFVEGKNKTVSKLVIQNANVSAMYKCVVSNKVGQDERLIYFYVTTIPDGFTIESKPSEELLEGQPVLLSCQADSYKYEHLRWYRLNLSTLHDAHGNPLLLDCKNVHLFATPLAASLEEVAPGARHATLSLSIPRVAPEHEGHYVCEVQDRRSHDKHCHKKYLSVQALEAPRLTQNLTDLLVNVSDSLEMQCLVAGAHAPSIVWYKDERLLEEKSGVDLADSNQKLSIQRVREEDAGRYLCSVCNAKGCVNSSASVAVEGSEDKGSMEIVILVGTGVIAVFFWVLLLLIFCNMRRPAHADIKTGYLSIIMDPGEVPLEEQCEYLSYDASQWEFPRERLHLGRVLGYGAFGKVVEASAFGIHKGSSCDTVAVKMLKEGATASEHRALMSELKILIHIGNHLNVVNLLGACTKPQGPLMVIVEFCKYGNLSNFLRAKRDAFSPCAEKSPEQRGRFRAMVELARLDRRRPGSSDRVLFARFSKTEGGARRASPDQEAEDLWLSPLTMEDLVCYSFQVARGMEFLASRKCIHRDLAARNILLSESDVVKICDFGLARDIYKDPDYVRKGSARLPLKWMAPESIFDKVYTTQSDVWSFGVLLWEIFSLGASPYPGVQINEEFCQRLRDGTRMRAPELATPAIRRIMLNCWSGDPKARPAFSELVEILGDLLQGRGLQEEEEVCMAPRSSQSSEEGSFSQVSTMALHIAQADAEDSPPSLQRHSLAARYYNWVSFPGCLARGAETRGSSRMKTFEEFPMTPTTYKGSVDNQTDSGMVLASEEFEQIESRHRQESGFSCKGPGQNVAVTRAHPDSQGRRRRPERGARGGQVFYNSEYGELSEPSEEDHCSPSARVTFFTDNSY

[8] = system: Tyrosine-protein kinase ABL1 (Homo sapiens), P00519 [T315I]; conditions: Compound concentration 1000.0 nM
[9] = target: T3, Bone morphogenetic protein receptor type-2 (Homo sapiens) (UniProt Q13873); conditions: Compound concentration 1000.0 nM
T3 sequence (whole entry): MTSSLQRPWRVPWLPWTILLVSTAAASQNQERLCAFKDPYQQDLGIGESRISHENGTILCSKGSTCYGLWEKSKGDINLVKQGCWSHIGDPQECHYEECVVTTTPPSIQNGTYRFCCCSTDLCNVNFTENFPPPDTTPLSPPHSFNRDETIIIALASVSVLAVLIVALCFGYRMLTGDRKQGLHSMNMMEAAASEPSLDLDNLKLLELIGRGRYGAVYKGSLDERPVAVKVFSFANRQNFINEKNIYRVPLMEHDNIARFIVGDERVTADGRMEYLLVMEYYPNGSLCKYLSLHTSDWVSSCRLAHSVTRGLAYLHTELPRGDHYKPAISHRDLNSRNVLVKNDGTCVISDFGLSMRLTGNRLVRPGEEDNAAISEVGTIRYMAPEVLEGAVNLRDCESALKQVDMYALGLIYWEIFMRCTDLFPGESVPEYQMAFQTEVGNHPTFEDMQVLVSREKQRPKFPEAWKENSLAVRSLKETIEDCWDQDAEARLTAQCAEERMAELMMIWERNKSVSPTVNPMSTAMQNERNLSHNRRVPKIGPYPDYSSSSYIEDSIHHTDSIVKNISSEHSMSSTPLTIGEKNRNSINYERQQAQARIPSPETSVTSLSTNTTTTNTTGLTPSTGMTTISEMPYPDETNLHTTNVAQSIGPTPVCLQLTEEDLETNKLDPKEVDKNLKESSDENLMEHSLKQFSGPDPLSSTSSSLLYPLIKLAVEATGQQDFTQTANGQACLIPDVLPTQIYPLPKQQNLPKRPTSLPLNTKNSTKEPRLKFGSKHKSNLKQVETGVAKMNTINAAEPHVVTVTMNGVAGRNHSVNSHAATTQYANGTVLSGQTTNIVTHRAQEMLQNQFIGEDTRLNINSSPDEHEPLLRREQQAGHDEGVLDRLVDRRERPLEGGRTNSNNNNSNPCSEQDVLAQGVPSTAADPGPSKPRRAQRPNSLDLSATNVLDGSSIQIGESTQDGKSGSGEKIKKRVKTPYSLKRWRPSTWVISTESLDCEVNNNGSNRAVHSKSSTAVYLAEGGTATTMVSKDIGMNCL

[10] = target: Atypical kinase COQ8B, mitochondrial (Homo sapiens) (UniProt Q96D53); conditions: Compound concentration 1000.0 nM
[11] = target: D(1B) dopamine receptor (Homo sapiens) (UniProt P21918); conditions: Compound concentration 10.0 uM
Sequence of D(1B) dopamine receptor (Homo sapiens) (P21918 whole entry): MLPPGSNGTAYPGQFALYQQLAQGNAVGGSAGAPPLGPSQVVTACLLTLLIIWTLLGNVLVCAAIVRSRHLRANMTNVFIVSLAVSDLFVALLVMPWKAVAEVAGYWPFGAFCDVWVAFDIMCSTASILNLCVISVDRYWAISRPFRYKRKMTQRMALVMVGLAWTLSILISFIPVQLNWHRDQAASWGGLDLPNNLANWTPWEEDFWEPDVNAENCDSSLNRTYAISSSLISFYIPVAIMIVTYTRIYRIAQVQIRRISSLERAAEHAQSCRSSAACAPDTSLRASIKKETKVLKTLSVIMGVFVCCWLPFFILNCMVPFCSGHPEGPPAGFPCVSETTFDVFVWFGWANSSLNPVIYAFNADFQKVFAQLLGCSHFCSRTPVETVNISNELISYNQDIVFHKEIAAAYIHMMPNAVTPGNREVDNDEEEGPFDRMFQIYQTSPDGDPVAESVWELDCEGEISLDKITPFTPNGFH

[12] = target: Serine/threonine-protein kinase SBK1 (Homo sapiens) (UniProt Q52WX2); conditions: Compound concentration 1000.0 nM
Sequence of Serine/threonine-protein kinase SBK1 (Homo sapiens) (Q52WX2 whole entry, canonical isoform): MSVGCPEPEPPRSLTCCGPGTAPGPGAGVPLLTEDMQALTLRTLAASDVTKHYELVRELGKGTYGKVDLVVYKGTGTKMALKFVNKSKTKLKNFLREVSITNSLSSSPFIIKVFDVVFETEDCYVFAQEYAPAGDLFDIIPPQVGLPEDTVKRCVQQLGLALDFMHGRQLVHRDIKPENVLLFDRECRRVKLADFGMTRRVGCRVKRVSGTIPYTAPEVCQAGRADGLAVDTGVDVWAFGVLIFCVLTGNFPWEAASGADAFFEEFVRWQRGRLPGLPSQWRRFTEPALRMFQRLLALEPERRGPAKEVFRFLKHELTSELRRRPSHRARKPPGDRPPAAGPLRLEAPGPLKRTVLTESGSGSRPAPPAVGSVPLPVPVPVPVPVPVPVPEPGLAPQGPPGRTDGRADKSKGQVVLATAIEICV

[13] = system: Phosphatidylinositol 4,5-bisphosphate 3-kinase catalytic subunit alpha isoform (Homo sapiens), P42336 [H1047Y]; conditions: Compound concentration 1000.0 nM
[14] = target: Serine/threonine-protein kinase RIO1 (Homo sapiens) (UniProt Q9BRS2); conditions: Compound concentration 1000.0 nM
Sequence of Serine/threonine-protein kinase RIO1 (Homo sapiens) (Q9BRS2 whole entry): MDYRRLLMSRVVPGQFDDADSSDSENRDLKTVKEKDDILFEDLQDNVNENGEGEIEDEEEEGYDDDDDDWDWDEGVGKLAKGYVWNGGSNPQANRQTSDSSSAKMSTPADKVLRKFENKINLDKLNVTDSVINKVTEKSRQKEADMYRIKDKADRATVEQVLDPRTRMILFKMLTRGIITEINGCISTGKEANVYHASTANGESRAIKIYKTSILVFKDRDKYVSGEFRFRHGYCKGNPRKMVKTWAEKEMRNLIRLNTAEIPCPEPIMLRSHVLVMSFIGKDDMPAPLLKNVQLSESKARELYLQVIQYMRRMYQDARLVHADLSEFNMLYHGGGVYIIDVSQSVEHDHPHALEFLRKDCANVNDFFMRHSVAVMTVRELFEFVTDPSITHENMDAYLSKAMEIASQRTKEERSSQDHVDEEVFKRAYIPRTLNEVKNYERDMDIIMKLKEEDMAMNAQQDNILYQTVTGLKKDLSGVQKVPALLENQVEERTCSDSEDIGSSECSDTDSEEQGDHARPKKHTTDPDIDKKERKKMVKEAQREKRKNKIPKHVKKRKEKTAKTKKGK

[15] = target: Serine/threonine-protein kinase Chk2 (Homo sapiens) (UniProt O96017); conditions: Compound concentration 1000.0 nM
[16] = system: Phosphatidylinositol 4,5-bisphosphate 3-kinase catalytic subunit alpha isoform (Homo sapiens), P42336 [E545A]; conditions: Compound concentration 1000.0 nM
[17] = target: Hormonally up-regulated neu tumor-associated kinase (Homo sapiens) (UniProt P57058); conditions: Compound concentration 1000.0 nM
[18] = target: Sigma intracellular receptor 2 (Homo sapiens, UniProt Q5BJF2); conditions: Compound concentration 10.0 uM
Sequence of Sigma intracellular receptor 2 (Q5BJF2 whole entry, canonical isoform): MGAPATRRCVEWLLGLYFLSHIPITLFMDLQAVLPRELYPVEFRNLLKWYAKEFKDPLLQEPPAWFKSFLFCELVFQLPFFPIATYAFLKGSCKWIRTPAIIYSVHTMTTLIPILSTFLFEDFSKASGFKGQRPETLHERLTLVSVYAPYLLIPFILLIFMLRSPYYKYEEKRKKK

[19] = system: Phosphatidylinositol 4,5-bisphosphate 3-kinase catalytic subunit alpha isoform (Homo sapiens), P42336 [I800L]; conditions: Compound concentration 1000.0 nM
Sequence of Phosphatidylinositol 4,5-bisphosphate 3-kinase catalytic subunit alpha isoform (Homo sapiens), P42336 [I800L] (P42336 whole entry I800L, canonical isoform): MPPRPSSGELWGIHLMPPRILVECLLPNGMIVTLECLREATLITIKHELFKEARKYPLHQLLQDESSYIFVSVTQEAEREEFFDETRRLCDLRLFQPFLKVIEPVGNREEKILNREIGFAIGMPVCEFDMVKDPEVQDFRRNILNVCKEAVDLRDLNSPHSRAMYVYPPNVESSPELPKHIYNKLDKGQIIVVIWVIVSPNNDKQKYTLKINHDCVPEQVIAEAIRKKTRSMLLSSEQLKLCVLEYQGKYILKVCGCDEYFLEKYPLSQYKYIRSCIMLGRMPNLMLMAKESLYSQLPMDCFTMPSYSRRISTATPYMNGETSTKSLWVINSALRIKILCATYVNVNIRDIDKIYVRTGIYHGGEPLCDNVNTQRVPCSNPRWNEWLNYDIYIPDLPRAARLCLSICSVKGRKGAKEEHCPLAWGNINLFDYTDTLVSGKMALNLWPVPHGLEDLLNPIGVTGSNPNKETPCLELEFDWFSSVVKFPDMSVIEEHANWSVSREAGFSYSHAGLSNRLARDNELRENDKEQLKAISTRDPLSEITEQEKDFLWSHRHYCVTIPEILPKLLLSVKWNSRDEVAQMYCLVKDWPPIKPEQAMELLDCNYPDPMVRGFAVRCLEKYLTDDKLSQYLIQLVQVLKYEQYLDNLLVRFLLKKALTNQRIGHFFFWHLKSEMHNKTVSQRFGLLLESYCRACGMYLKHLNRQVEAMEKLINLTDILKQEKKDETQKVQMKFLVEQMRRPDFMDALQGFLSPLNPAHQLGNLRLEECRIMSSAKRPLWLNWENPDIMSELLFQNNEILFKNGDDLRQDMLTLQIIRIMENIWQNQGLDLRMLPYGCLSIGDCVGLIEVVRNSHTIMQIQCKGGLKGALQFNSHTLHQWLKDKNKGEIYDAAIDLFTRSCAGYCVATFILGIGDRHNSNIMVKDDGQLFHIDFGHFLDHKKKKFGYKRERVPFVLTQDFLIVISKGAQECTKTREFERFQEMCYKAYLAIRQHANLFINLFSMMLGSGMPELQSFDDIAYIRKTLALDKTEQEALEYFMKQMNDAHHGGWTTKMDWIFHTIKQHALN

Sequence of Mitogen-activated protein kinase 7 (Homo sapiens) (Q13164 2-816 limits assumed): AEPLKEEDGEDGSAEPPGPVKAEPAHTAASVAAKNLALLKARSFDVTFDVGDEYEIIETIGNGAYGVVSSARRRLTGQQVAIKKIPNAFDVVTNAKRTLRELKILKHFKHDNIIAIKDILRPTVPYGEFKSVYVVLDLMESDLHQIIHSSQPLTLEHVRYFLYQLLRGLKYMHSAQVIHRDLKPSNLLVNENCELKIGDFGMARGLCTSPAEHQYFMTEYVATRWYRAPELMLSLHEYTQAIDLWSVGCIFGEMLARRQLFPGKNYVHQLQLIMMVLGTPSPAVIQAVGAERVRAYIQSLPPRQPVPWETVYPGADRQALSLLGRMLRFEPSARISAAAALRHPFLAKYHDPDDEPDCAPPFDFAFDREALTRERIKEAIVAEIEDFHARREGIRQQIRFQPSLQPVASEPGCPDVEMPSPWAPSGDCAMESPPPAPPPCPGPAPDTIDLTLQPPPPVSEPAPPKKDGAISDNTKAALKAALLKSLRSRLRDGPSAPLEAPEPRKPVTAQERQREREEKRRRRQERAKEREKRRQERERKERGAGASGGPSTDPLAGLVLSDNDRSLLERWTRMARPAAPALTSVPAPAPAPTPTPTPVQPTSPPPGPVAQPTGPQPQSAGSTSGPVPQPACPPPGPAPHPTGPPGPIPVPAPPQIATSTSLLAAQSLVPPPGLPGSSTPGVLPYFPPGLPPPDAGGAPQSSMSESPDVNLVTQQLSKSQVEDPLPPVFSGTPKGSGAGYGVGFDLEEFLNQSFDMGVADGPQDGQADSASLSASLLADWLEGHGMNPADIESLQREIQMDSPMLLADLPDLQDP

SMILES	residual activity [1]	residual activity [2]	residual activity [3]	residual activity [4]	residual activity [5]	residual activity [6]	residual activity [7]	residual activity [8]	residual activity [9]	residual activity [10]	inhibition [11]	residual activity [12]	residual activity [13]	residual activity [14]	residual activity [15]	residual activity [16]	residual activity [17]	inhibition [18]	residual activity [19]
Cc1nc(C2CCN(C(=O)c3ccc(OC(F)(F)F)cc3N)CC2)c2ncc(N3CCN(C)CC3)cc2n1 [BAY-693]	22%	98%	93%	98%	94%	100%	75%	100%	100%	93%	12.4%	40%	69%	100%	100%	79%	100%	51.4%	96%
CN1CCN(c2cnc3c(C4CCN(C(=O)c5ccc(OC(F)(F)F)cc5N)CC4)ncnc3c2)CC1 [BAY-885]	0.1%	100%	100%	94%	100%	98%	100%	100%	100%	100%	4.63%	100%	92%	100%	100%	89%	95%	30.9%	100%
